Measurements taken from article PMC9763021, “Comprehensive Assessment of Biomolecular Interactions of Morpholine-Based Mixed Ligand Cu(II) and Zn(II) Complexes of 2,2′-Bipyridine as Potential Anticancer and SARS-CoV-2 Agents: A Synergistic Experimental and Structure-Based Virtual Screening” (Bioinorganic Chemistry and Applications, 2022).

Legend:
bovine serum albumin = bovine serum albumin (Bos taurus, UniProt P02769); experiment: BSA binding by UV-visible absorption titration; settings: for Chromism (% H), hyperchromism: BSA 278 nm; for Δλ (nm), blue shift of BSA band: Tris-HCl, 25 μM BSA; for ∆Gb°: –RT lnKapp, 298 K
Protocol: In the presence of Tris-HCl buffer solution, the UV-vis absorption titrations were done with a 25 μM concentration of BSA at room temperature. While the sample concentrations (0–25 μM) increased in the same BSA concentration solution, the change in the absorption band at 278 nm was continuously noted.
The UV-visible spectral titration properties are imperatively supported to scrutinize the structural changes and the nature of quenched biomolecules by the chemical substance. The titration was executed for BSA in the presence and absence of substances in Tris-HCl solution (Figure 7 and Table 7). Two distinctive adsorption peaks can be noticed in the UV-visible spectra of free BSA: one at 210 nm, which is connected to the polypeptide backbone, and the other at 280 nm, which is responsible for Trp, Tyr, and Phe aromatic amino acid residues. BSA's interaction with the test substances is designated by alterations in the electronic absorption spectra. Quenching typically occurs in either a static or dynamic phase. The static quenching mechanism only involves the synthesis of a bovine serum albumin-compound in the ground state, when a dynamic quenching mechanism involves the temporary presence of the excited state due to diffusion, which brings the BSA and the compound into close proximity. In addition, the dynamic quenching mechanism has no outcome on the electronic absorption spectrum; it only affects the excited state. Furthermore, both types have different temperature dependences; for example, in dynamic quenching, the quenching constants are meant to rise with temperature. Conversely, raised temperatures in static quenching favour decreased stability and lower quenching constants. […] It also recommended that bovine serum albumin and the test compounds in the ground state interact statically. In this case, the evaluated hyperchromism was found in the range of 47.79 to 65.62%. […] The Benesi–Hildebrand (37) is supported to evaluate the Kb values (Table 7). The Kapp findings for all substances were estimated from the finding of the intercept divided slope in the linear regression plot of [(A∞ − A0)/(Ax − A0)] vs. {1/[compound]} M^−1(Figure S34). The evaluated Kb findings for all test substances were in the subsequent order: (1a) > (2a) > (HL) with ∆Gb° values from –22.1246 to –28.0038 kJ·mol^−1. Complex (1a) is also clearly shown to have the greatest spontaneous binding efficacy with BSA among others.
Hyperchromism%=(A∞ − A0)/A∞ × 100; A0 is denoted as absorbance of BSA alone at 278 nm, A∞ is represented as absorbance of the fully bound form of BSA with complex or ligand, and Ax is absorbance of BSA in the addition of different concentration of complex or ligand, Gibb's free energy change ΔGb°=–RT lnKapp (where R = […] and T = 298 K); Kapp is denoted as apparent binding constant evaluated from the UV-vis absorption spectral titration.(37) A∞−A0/AX−A0=1/KbCompound+1, where ∆Amax = (A∞ − A0), ∆A = (Ax − A0), A0, Ax, and A∞ are denoted as the absorbance of free BSA, the absorbance of BSA in the increment concentrations of the compound, and the absorbance value of the fully bound form of bovine serum albumin with substance, respectively. Error limit ±2.5%.

CT-DNA = experiment: DNA thermal denaturation (biothermodynamic properties); assay type: binding, calf thymus; settings: for Tm (K) / Tm °C of DNA-compound adduct: 260 nm, [DNA]/[Complex] = 1; for Tm °C of DNA-compound adduct: CT-DNA alone 68°C; for ΔH°: Van't Hoff equation; for ΔTm °C: versus free DNA (68°C); for ΔG°: −R.Tm.lnKm
Protocol: Thermal denaturation characteristics were executed by a UV-visible spectrophotometer in a temperature-controlled sample container in both the presence and absence of the substances. In a Tris-HCl buffer solution with a pH of 7.4, all substances were incubated with CT-DNA in a 1 : 1 ratio. Temperature increases of two degrees Celsius per minute were applied to test substances in the range of 25 to 100°C, and the changes in absorbance at 260 nm were carefully scrutinized.
DNA denaturation contributes to the root cause of several chronic diseases, hereditary disorders, and a reduction in the ability of DNA repair to work properly. The biothermodynamic properties were further supported to determine the ability of stabilization of the double-standard DNA, and it offers details on the structural alterations, the degree of the DNA-compound system, the external binding-mediated neutralization of phosphate charges on DNA, and the stacking interactions, all of which work together to raise the DNA's melting point. […] The Van't Hoff (9) and Gibbs Helmholtz equations (10) were supportive in evaluating the biothermodynamic parameters, which are enclosed in Table 2. […] The influencing factors between test compounds and DNA mostly depend on the type of interaction mode. Because of the driving forces, H-bonds, weak Van der Waals forces, and electrostatic modes of binding all occur while the enthalpy is favourable. Hydrophobic forces induce binding while entropy is favourable; on the other hand, the loss of structural degrees of freedom leads to undesirable entropic changes. As per Ross and colleagues, the findings for ΔH° and ΔS° can alternatively be derived in the following favourable sequence. If ΔH° > 0 and ΔS° > 0, this attributes intercalation due to hydrophobic forces of attraction. If ∆H° < 0 and ΔS° < 0, this involves weak Van der Waals forces of attraction and H-bonding interactions. On the other hand, if ΔH° < 0 (or), ΔH°≈0 and ∆S° > 0, this indicates the electrostatic mode of binding possible between DNA and compounds [28, 68]. […] Furthermore, it is widely acknowledged that the hydration and generation of the compound-deoxyribonucleic acid adduct system via the counter ion liberating mechanism are highly dependent on the hydrophobic forces of attraction.

[1] = DPPH radical scavenging assay; assay type: biochemical; settings: for % Inhibition DPPH: 517 nm
Protocol: All samples were evaluated for their scavenging ability with the help of UV-visible spectrophotometer at different concentrations of 40, 80, 120, 160, 200, and 240 μM [6, 28]. While performing the antioxidant properties for the DPPH, hydroxyl, superoxide, and nitric oxide radical scavenging, the absorbance at 517, 230, 590, and 546 nm, respectively, was closely observed. In addition, the observed IC50 values of all samples were compared with ascorbic acid.
The colour of an aqueous or methanol solution changes from deep purple to pale yellow when DPPH, a stable chromogen free radical, combines with an antioxidant molecule, which means that DPPH quickly absorbs the hydrogen or electrons from the donor groups. In this case, for the baseline correction, a blank DPPH solution in the absence of a test compound was employed, and 517 nm (ε = 8320 M^−1·cm^−1) was attained to have a significant absorption maximum. […] The DPPH radicals are reduced by an antioxidant compound (AH), in which the reduction of electronic absorbance for each compound was vigilantly noted at 517 nm. The capacity to block radicals improves as the sample concentration increases. The assessed percentage of maximum inhibition for all substances was found at 240 μM in the subsequent order: (ascorbic acid) (85.65) > (1a) 68.64 > (2a) 59.55 > (HL) 52.45. […] Moreover, the % of scavenging or maximum inhibition for all substances is estimated with the aid of equation (44) (Table S14).(43) Scavanging%=A0−AS/A0×100

Chain of bovine serum albumin (P02769 25-607): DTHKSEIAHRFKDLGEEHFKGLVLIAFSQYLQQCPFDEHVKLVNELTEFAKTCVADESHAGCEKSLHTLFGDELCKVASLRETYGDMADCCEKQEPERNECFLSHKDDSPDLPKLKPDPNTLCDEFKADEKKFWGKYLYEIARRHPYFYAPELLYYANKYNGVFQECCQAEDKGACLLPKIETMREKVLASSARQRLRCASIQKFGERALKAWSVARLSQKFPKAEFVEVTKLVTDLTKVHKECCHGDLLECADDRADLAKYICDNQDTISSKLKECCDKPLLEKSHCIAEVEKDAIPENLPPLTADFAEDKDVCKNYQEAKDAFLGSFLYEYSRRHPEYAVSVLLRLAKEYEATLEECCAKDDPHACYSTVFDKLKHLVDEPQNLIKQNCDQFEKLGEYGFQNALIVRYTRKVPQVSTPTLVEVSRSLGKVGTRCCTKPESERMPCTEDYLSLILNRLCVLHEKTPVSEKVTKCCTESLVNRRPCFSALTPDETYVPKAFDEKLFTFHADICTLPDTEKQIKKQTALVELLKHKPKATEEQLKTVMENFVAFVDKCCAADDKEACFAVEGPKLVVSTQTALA

| SMILES | Binding constant Kapp by BH method (bovine serum albumin) [M⁻¹] | Chromism (% H), hyperchromism (bovine serum albumin) [%] | Δλ (nm), blue shift of BSA band (bovine serum albumin) [nm] | ∆Gb° (bovine serum albumin) [kcal/mol] | ΔS° (CT-DNA) | Tm (K) (CT-DNA) | Tm °C of DNA-compound adduct (CT-DNA) [°C] | Binding constant Kr at 298 K (CT-DNA) | ΔH° (CT-DNA) | ΔTm °C (CT-DNA) [°C] | ΔG° (CT-DNA) | % Inhibition DPPH ([1]; 40 µM) [%] | % Inhibition DPPH ([1]; 80 µM) [%] | % Inhibition DPPH ([1]; 120 µM) [%] | % Inhibition DPPH ([1]; 160 µM) [%] | % Inhibition DPPH ([1]; 200 µM) [%] | % Inhibition DPPH ([1]; 240 µM) [%] | IC50 [1] [µM] | Kd (bovine serum albumin) [µM] |
| --- | --- | --- | --- | --- | --- | --- | --- | --- | --- | --- | --- | --- | --- | --- | --- | --- | --- | --- | --- |
| [O-]c1ccccc1N=Cc1ccc(N2CCOCC2)cc1.[O-]c1ccccc1N=Cc1ccc(N2CCOCC2)cc1.[Zn+2].c1ccc(-c2ccccn2)nc1 [(2a), [Zn(L)2(bpy)]] | 44355 | 55.04 | 04 | -6.33389 | –8.4501 cal mol^–1 | 351 | 78 | 1.8287 × 10^4 M^–1 | –8.3292 kcal mol^–1 | 10 | –5.3632 kcal mol^–1 | 12.75 | 24.73 | 30.02 | 39.68 | 48.79 | 59.55 |  |  |
| [Cu+2].[O-]c1ccccc1N=Cc1ccc(N2CCOCC2)cc1.[O-]c1ccccc1N=Cc1ccc(N2CCOCC2)cc1.c1ccc(-c2ccccn2)nc1 [(1a), [Cu(L)2(bpy)]] | 81059 | 65.62 | 05 | -6.69307 | –6.9577 cal mol^–1 | 353 | 80 | 1.9000 × 10^4 M^–1 | –7.9071 kcal mol^–1 | 12 | –5.4511 kcal mol^–1 | 17.53 | 30.62 | 35.74 | 51.72 | 57.95 | 68.64 | 160 |  |
| Oc1ccccc1N=Cc1ccc(N2CCOCC2)cc1 [(HL), 2-(4-morpholinobenzylideneamino)phenol] |  | 47.79 | 02 | -5.28791 | –13.7851 cal mol^–1 | 347 | 74 | 1.5169 × 10^4 M^–1 | –9.8083 kcal mol^–1 | 6 | –5.0249 kcal mol^–1 | 09.45 | 15.21 | 26.36 | 34.56 | 39.41 | 52.45 |  | 132 |
